In PubChem BioAssay AID206 (DTP/NCI, 2004) one finds T/C data, which are given here for 21 compounds.

Structures are written as SMILES. Several values for one entry are separate records, joined by “and”; a condition that tells them apart may be missing. Equal values may be shown once. Inconclusive results are not listed. Starred links: 1 amine or outer side, 2 acyl side, 3 side chain; linkers in the order of their positions; H or OH if unused. Positions of bridges follow the written chain, without caps; N, C: chain ends. Non-standard residues stand in square brackets, D forms with d. Residues, ends and D or L forms follow the SMILES beside them. Chains are numbered I, II in the order given. Actinocin(9to1) = Cc1c2oc3c(C)ccc(C(=O)[*:1])c3nc-2c(C(=O)[*:2])c(N)c1=O; aThr = C[C@H](O)[C@H](N)C(=O)O; NMeV = CN[C@H](C(=O)O)C(C)C; Sar = CNCC(=O)O

The test concerns nude mice, HT29 intrarenal xenograft, tumor weight T/C. Kind of test: NCI In Vivo Anticancer Drug Screen. Data for tumor model HT29;CX-1 Human Adenocarcinoma (MER+) (intrarenal inoculation) in NU/NU Swiss (nude) mice. To be noted: endpoint: mean tumor weight change, higher = larger tumour. In short, it runs like this: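 Tumor-bearing mice received test compound or vehicle, and tumor size or survival was recorded. Values are the treated-group measurement divided by the vehicle-treated control measurement.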

[1] abbreviates: dose: 600.0 mg/kg/injection, schedule: Q04DX004 (sc), vehicle: saline with Tween-80.
The mark [2] stands for this setting: dose: 100.0 mg/kg/injection, schedule: Q01DX010 (sc), vehicle: saline with Tween-80.
Setting [3] is: dose: 200.0 mg/kg/injection, schedule: Q01DX010 (sc), vehicle: saline with Tween-80.
The mark [4] stands for this setting: dose: 400.0 mg/kg/injection, schedule: Q01DX010 (sc), vehicle: saline with Tween-80.
Setting [5] is: dose: 800.0 mg/kg/injection, schedule: Q01DX010 (sc), vehicle: saline with Tween-80.
Where [6] appears, read: dose: 2.5 mg/kg/injection, schedule: Q04DX004 (sc), vehicle: water.
Setting [7] is: dose: 5.0 mg/kg/injection, schedule: Q04DX004 (sc), vehicle: water.
[8] abbreviates: dose: 10.0 mg/kg/injection, schedule: Q04DX004 (sc), vehicle: water.
The mark [9] stands for this setting: dose: 200.0 mg/kg/injection, schedule: Q04DX004 (sc), vehicle: suspension in saline.
Where [10] appears, read: dose: 400.0 mg/kg/injection, schedule: Q04DX004 (sc), vehicle: suspension in saline.
[11] abbreviates: dose: 800.0 mg/kg/injection, schedule: Q04DX004 (sc), vehicle: suspension in saline.

Regarding `CNC(=O)n1c(N)nc(-c2ccccc2)c1-c1ccccc1`, the T/C (dose: 300.0 mg/kg/injection, schedule: Q04DX004 (sc), vehicle: saline with Tween-80) is 92 % of control and the T/C under setting [1] is 38 % of control.
Regarding `C/C=C/c1cc2n(c1)C(=O)c1cc(OC3OC(C)C(NC)C(C)(O)C3O)c(C)c(O)c1NC2O` (stereo unspecified), the T/C by setting is: (dose: 12.5 micrograms/kg/injection, schedule: Q04DX004 (sc), vehicle: saline) 69 % of control; (dose: 25.0 micrograms/kg/injection, schedule: Q04DX004 (sc), vehicle: saline) 101 % of control; (dose: 50.0 micrograms/kg/injection, schedule: Q04DX004 (sc), vehicle: saline) 83 % of control; (dose: 100.0 micrograms/kg/injection, schedule: Q04DX004 (sc), vehicle: saline) 94 % of control.
Regarding `O=C(CO)c1ccc([N+](=O)[O-])cc1`, the T/C was 63 % of control under setting [2], 70 % of control under setting [3], 122 % of control under setting [4] and 75 % of control under setting [5].
Take `CS(=O)(=O)OCCCCOS(C)(=O)=O`: the T/C (dose: 6.25 mg/kg/injection, schedule: Q01DX010 (sc), vehicle: saline with Tween-80) is 121 % of control and the T/C (dose: 25.0 mg/kg/injection, schedule: Q01DX010 (sc), vehicle: saline with Tween-80) was 238 % of control.
Turning to `CCCCCCCCCCCCCCCCCC(=O)OCC(=O)OCC(=O)[C@]1(O)Cc2c(O)c3c(c(O)c2[C@@H](OC2CC(N)C(O)C(C)O2)C1)C(=O)c1c(OC)cccc1C3=O` (stereo partly specified), the T/C reads like this: (dose: 3.0 mg/kg/injection, schedule: Q01DX010 (sc), vehicle: water) 56 % of control; (dose: 6.0 mg/kg/injection, schedule: Q01DX010 (sc), vehicle: water) 47 % of control; (dose: 7.5 mg/kg/injection, schedule: Q04DX004 (sc), vehicle: water) 86 % of control; (dose: 12.0 mg/kg/injection, schedule: Q01DX010 (sc), vehicle: water) 59 % of control; (dose: 15.0 mg/kg/injection, schedule: Q04DX004 (sc), vehicle: water) 96 % of control; (dose: 30.0 mg/kg/injection, schedule: Q04DX004 (sc), vehicle: water) 38 % of control.
For `O=C1N(Cl)C(=O)C(c2ccc(Cl)cc2)(c2ccc(Cl)cc2)N1Cl`, the T/C is, setting by setting: under setting [2], 105 % of control; under setting [3], 83 % of control.
For `COc1cccc2c1C(=O)c1c(O)c3c(c(O)c1C2=O)C[C@@](O)(C(C)=O)C[C@@H]3OC1CC(N(C)C)C(O)C(C)O1` (stereo partly specified), the T/C was 69 % of control under setting [6]; 54 % of control (dose: 4.0 mg/kg/injection, schedule: Q01DX010 (sc), vehicle: saline); 45 % of control under setting [7]; 97 % of control under setting [8].
Regarding `CSc1ncc2ncn(C3OC(CO)C(O)C3O)c2n1` (stereo unspecified), the T/C was 95 % of control (dose: 75.0 mg/kg/injection, schedule: Q04DX004 (sc), vehicle: Klucel (hydroxypropylcellulose) (HPC)); 90 % of control (dose: 150.0 mg/kg/injection, schedule: Q04DX004 (sc), vehicle: Klucel (hydroxypropylcellulose) (HPC)); 185 % of control (dose: 300.0 mg/kg/injection, schedule: Q04DX004 (sc), vehicle: Klucel (hydroxypropylcellulose) (HPC)); 182 % of control (dose: 600.0 mg/kg/injection, schedule: Q04DX004 (sc), vehicle: Klucel (hydroxypropylcellulose) (HPC)).
Regarding `Cc1c2oc3c(C)ccc(C(=O)N[C@@H]4C(=O)N[C@H](C(C)C)C(=O)N5CCC[C@H]5C(=O)N(C)CC(=O)N(C)[C@@H](C(C)C)C(=O)O[C@H]4C)c3nc-2c(C(=O)N[C@@H]2C(=O)N[C@H](C(C)C)C(=O)N3CCC[C@H]3C(=O)N(C)CC(=O)N(C)[C@@H](C(C)C)C(=O)O[C@H]2C)c(N)c1=O` (I: [aThr][dV]P[Sar][NMeV] / II: [aThr][dV]P[Sar][NMeV]; ester I:1-I:C, II:1-II:C; linker I:N-II:N via Actinocin(9to1)), the T/C (dose: 25.0 micrograms/kg/injection, schedule: Q01DX010 (sc), vehicle: saline) is 31 % of control.
For `CSc1cc(C)[o+]c(C)c1`, the T/C is 107 % of control (dose: 50.0 mg/kg/injection, schedule: Q04DX004 (sc), vehicle: Klucel (hydroxypropylcellulose) (HPC)); 57 % of control (dose: 100.0 mg/kg/injection, schedule: Q04DX004 (sc), vehicle: Klucel (hydroxypropylcellulose) (HPC)); 41 % of control (dose: 200.0 mg/kg/injection, schedule: Q04DX004 (sc), vehicle: Klucel (hydroxypropylcellulose) (HPC)).
For `Cc1c2ccncc2c(C)c2c1[nH]c1ccccc12`, the T/C is 70 % of control (dose: 12.5 mg/kg/injection, schedule: Q01DX010 (sc), vehicle: saline) and 47 % of control (dose: 25.0 mg/kg/injection, schedule: Q01DX010 (sc), vehicle: saline).
As to `Cc1ccc2nc(-c3ccc4nc(-c5ccc(N=Nc6ccc(-c7nc8ccc(-c9nc%10ccc(C)c(S(=O)(=O)O)c%10s9)cc8s7)cc6)cc5)sc4c3)sc2c1S(=O)(=O)O`, the T/C is 190 % of control under setting [9]; 109 % of control under setting [10]; 221 % of control under setting [11]; 50 % of control (dose: 1600.0 mg/kg/injection, schedule: Q04DX004 (sc), vehicle: suspension in saline).
Consider `Cc1cc2nc3c(=O)[nH]c(=O)nc-3n(CC(O)C(O)C(O)C(O)CO)c2cc1C` (stereo unspecified), for which the T/C was 94 % of control under setting [1]; 78 % of control (dose: 1200.0 mg/kg/injection, schedule: Q04DX004 (sc), vehicle: saline with Tween-80); 90 % of control (dose: 2400.0 mg/kg/injection, schedule: Q04DX004 (sc), vehicle: saline with Tween-80).
Regarding `Nc1nc(-c2cccc3ccccc23)cc2ccccc12`, the T/C runs as follows: (dose: 200.0 mg/kg/injection, schedule: Q04DX004 (sc), vehicle: saline with Tween-80) 67 % of control; (dose: 400.0 mg/kg/injection, schedule: Q04DX004 (sc), vehicle: saline with Tween-80) 105 % of control.
With `Cc1cn(C2CC(F)C(CO)O2)c(=O)[nH]c1=O` (stereo unspecified), the T/C is, setting by setting: (dose: 100.0 mg/kg/injection, schedule: Q04DX004 (sc), vehicle: suspension in saline) 65 % of control; under setting [9], 60 % of control; under setting [10], 117 % of control; under setting [11], 74 % of control.
In the case of `O=C1c2c(O)ccc(O)c2C(=O)c2c(NCCNCCO)ccc(NCCNCCO)c21`, the T/C (dose: 0.13 mg/kg/injection, schedule: Q01DX010 (sc), vehicle: acid diluted with saline) is 89 % of control; the T/C (dose: 0.25 mg/kg/injection, schedule: Q01DX010 (sc), vehicle: acid diluted with saline) is 75 % of control; the T/C under setting [6] was 73 % of control; the T/C under setting [7] is 104 % of control; the T/C under setting [8] is 76 % of control.
On to `COc1ccc(-c2cc(C(=O)Nc3cc(C(F)(F)F)cc(C(F)(F)F)c3)c3ccccc3n2)cc1`, for which the T/C (dose: 300.0 mg/kg/injection, schedule: Q04DX004 (ip), vehicle: DMSO) was 115 % of control and the T/C (dose: 600.0 mg/kg/injection, schedule: Q04DX004 (ip), vehicle: DMSO) is 50 % of control.
Take `COc1cc(C[C@H]2c3cc(OC)c(OC)cc3CCN2C)c(Oc2cc3c(cc2OC)-c2c(OC)c(OC)cc4c2[C@H](C3)N(C)CC4)cc1OC`: the T/C runs as follows: under setting [2], 100 % of control; under setting [3], 45 % of control; under setting [4], 67 % of control; under setting [5], 63 % of control.
As to `CCOC(=O)Nc1cc2c(c(N)n1)N=C(CN(C)c1ccccc1)CN2`, the T/C is, setting by setting: (dose: 6.0 mg/kg/injection, schedule: Q01DX010 (sc), vehicle: Klucel (hydroxypropylcellulose) (HPC)) 35 % of control; (dose: 12.0 mg/kg/injection, schedule: Q01DX010 (sc), vehicle: Klucel (hydroxypropylcellulose) (HPC)) 45 % of control; (dose: 24.0 mg/kg/injection, schedule: Q01DX010 (sc), vehicle: Klucel (hydroxypropylcellulose) (HPC)) 53 % of control.
In the case of `C/C=C(\C)c1cc(=O)c2c(C)cc3c(c2o1)C(=O)c1c(O)c(C2CC(C)(N(C)C)C(OC(C)=O)C(C)O2)cc(C2CC(N(C)C)C(O)C(C)O2)c1C3=O` (stereo unspecified), the T/C is, setting by setting: (dose: 2.5 mg/kg/injection, schedule: Q04DX004 (sc), vehicle: saline) 102 % of control; (dose: 5.0 mg/kg/injection, schedule: Q04DX004 (sc), vehicle: saline) 93 % of control; (dose: 20.0 mg/kg/injection, schedule: Q04DX004 (sc), vehicle: saline) 37 % of control and 39 % of control.
On to `Cc1cc(NCCCCCCNc2cc(C)nc3cc(N(C)C)ccc23)c2ccc(N(C)C)cc2n1`, for which the T/C was 112 % of control (dose: 37.5 mg/kg/injection, schedule: Q04DX004 (sc), vehicle: distilled water + Tween-80 + alcohol) and 42 % of control (dose: 75.0 mg/kg/injection, schedule: Q04DX004 (sc), vehicle: distilled water + Tween-80 + alcohol).
